Our source for the IC50 values is US20230271959A1, “HETEROCYCLIC COMPOUND AS BCL-2 INHIBITOR” (Beijing Innocare Pharma Tech Co., Ltd., priority 2020, published 2023).

Where only a bound is given, the exact number is not on record here.

Experiment [1] concerns the target T1, human recombinant Bcl-2 protein (Homo sapiens, UniProt P10415).
T1 construct: purchased Beijing Yigiao Shenzhou Biotechnology Co., Ltd. 10195-HOSE
Description: Fluorescence polarization test for inhibition of BCL-2 binding to FITC-BIM. The settings on record: 5 nM BCL-2, 5 nM FITC-BIM, read-out: FP BCL-2 IC50. As to the method: Fluorescence polarization assay was used to evaluate the effect of the compounds of the present invention on the biological activity of BCL-2.
The effects of the compounds on the biological activity of BCL-2 were evaluated by determining the effects of the compounds on the binding activity of BCL-2 to leukemia pro-apoptotic protein (BIM) using an affinity assay method based on the principle of fluorescence polarization. The reaction buffer comprises the following components: PBS (pH 7.4, 3 mM Na2HPO4, 155 mM NaCl, 1 mM KH2PO4), 1 mM DTT; human recombinant Bcl-2 protein (Item No. 10195-HOSE) (purchased from Beijing Yigiao Shenzhou Biotechnology Co., Ltd.) was diluted to 5 nM with the reaction buffer; FITC-labeled BIM polypeptide (purchased from Nanjing GenScript Biotechnology Co., Ltd.) was diluted to 5 nM with the reaction buffer.
The compounds were dissolved in 100% DMSO and diluted to 0.1, 1, 10 μM, followed by 4-fold serial dilutions with DMSO to a minimum concentration of 0.0061, 0.061, 0.61 nM, each concentration point was further diluted 50-fold with the reaction buffer.
3 μL of solution containing the compound and 12 μL of solution containing BCL-2 were added to the black 384-well assay plate, mixed well, and incubated at room temperature for 15 minutes. Subsequently, 15 μL of FITC-BIM solution was added, and the reaction mixture was incubated at room temperature for 30 minutes in dark place, and then the fluorescence polarization was detected immediately on an Envision multi-mode reader (Perkin Elmer), with 480 nm as the excitation wavelength and 535 nm as the emission wavelength. In this experiment, the group without BCL-2 protein was used as a negative control (100% inhibition), and the group with BCL-2 protein but without the compound was used as a positive control (0% inhibition). The inhibition percentage of the compound to the affinity of BCL-2 can be calculated using the following equation: […]
(§1) The IC50 of the compound was calculated from 8 concentration points using XLfit (ID Business Solutions Ltd., UK) software by the following equation:
(§2) Y=Bottom+(Top−Bottom)/(1+10^((log IC50−X)*slope factor))
(§3) where Y is the inhibition percentage, X is the logarithm of the concentration of the compound to be tested, Bottom is the maximum inhibition percentage, Top is the minimum inhibition percentage, and slope factor is the slope coefficient of the curve.
(In general: Fluorescence polarisation rises when a labelled molecule tumbles more slowly, as on binding a larger partner.)

Experiment [2] addresses T2, human recombinant Bcl-XL protein (Homo sapiens, UniProt Q07817).
T2 construct: purchased Beijing Yiqiao Shenzhou Biotechnology Co., Ltd. 10455-H0SE
Description: Fluorescence polarization test for inhibition of BCL-XL binding to FITC-BIM. The settings on record: 10 nM BCL-XL, 10 nM FITC-BIM, read-out: FP BCL-XL IC50. As to the method: Fluorescence polarization assay was used to evaluate the effect of the compounds of the present invention on the biological activity of BCL-XL.
The effects of the compounds on the biological activity of BCL-XL were evaluated by detecting the effects of the compounds on the binding activity of BCL-XL to BIM using an affinity assay method based on the principle of fluorescence polarization. The reaction buffer contains the following components: PBS (pH 7.4, 3 mM Na2HPO4, 155 mM NaCl, 1 mM KH2PO4), 1 mM DTT; human recombinant Bcl-XL protein (Item No. 10455-H0SE) (purchased from Beijing Yiqiao Shenzhou Biotechnology Co., Ltd.) was diluted to 10 nM with reaction buffer; FITC-labeled BIM polypeptide (purchased from Nanjing GenScript Biotechnology Co., Ltd) was diluted to 10 nM with reaction buffer.
The compounds were dissolved in 100% DMSO and diluted to 1 μM, followed by 4-fold serial dilutions in DMSO to a minimum concentration of 0.061 nM, each concentration point was further diluted 50-fold with reaction buffer.
3 μL of solution containing the compound and 12 μL of solution containing BCL-XL were added to the black 384-well assay plate, mixed well, and incubated at room temperature for 15 minutes. Subsequently, 15 μL of FITC-BIM solution was added, and the reaction mixture was incubated at room temperature for 30 minutes in the dark place, and then the fluorescence polarization was detected immediately on an Envision multi-plate reader (Perkin Elmer), with 480 nm as the excitation wavelength and 535 nm as the emission wavelength. In this experiment, the group without BCL-XL protein was used as a negative control (100% inhibition), and the group with BCL-XL protein but without the compound was added as a positive control (0% inhibition). The inhibition percentage of the compound to the affinity of BCL-XL can be calculated using the following equation: […]
as §1, §2, §3

The test system of experiment [3] is RS4;11 cells (acute lymphoblastic leukemia cells). Description: RS4;11 cell proliferation, CellTilter-Glo luminescence cell viability assay. The settings on record: CTG readout after 48 hours. The class given is cell-based. On the procedure: The effects of the compounds of the present invention on the proliferation of RS4;11 cells were evaluated using a luminescence cell viability assay.
A CellTilter-Glo (CTG) Assay Kit is used to detect ATP, a key indicator of the metabolism of living cells, through a unique, highly sensitive and stable luciferase. The luminescent signal generated in the assay is proportional to the number of the viable cells in the medium, therefore the cell proliferation of RS4;11 can be determined.
CellTilter-Glo reagent (Promega, G7572) is composed of CellTilter-Glo lyophilized powder and CellTilter-Glo buffer, and the lyophilized powder can be dissolved in the buffer for use.
RS4;11 cells (ATCC, CRL-1873) were cultured in RPMI1640 complete medium (Thermofisher, 72400-047) containing 10% FBS (GBICO, 10099-141) and 100 units/ml penicillin-streptomycin solution (Thermofisher, 15140122)), when the cells covered 80-90% in the culture vessel, they were digested and dispersed with 0.25% trypsin (containing EDTA) (Thermofisher, 25200056) and then planted in a white 384-well plate (Thermofisher, 164610), and then the 384-well plate was incubated overnight in a 37° C., 5% CO2 incubator. Compounds were dissolved in 100% DMSO and diluted to […], followed by 4-fold serial dilutions with DMSO to a minimum concentration of 0.061 μM, and each concentration point was further diluted 50-fold with FBS-free RPMI1640 medium. If the IC50 of the compound is very low, the initial concentration of the compound can be reduced. After overnight, 3 μL of the compound diluted in the medium was added to each well, and the mixture was gently centrifuged to mix. The group without cells was used as a negative control (100% inhibition), and the group with 0.2% DMSO was used as a positive control (0% inhibition). The 384-well plate was placed in a 37° C., 5% CO2 incubator for further cultivation. After 48 hours, the plate was taken out and equilibrated to room temperature. 15 μl of CTG reagent was added to each well, the plate was shaken gently for 3 minutes to make sure that the cell lysis was carried out thoroughly, then the plate was kept for 10 minutes to stabilize the luminescence signal, then the luminescence signal was read by EnVision (Perkin Elmer).
The inhibition percentage of the compounds to RS4;11 cell proliferation can be calculated using the following equation:
Inhibition Percentage=100−100*(signal compound-signal negative control)/(signal positive control-signal negative control)
as §1
Y=Bottom+(Top−Bottom)/(1+10^((Log IC50−X)*slope factor))
wherein, Y is the inhibition percentage, Bottom is the bottom plateau of the curve (the bottom plateau value of the S-shaped curve), Top is the top plateau of the curve (the top plateau value of the S-shaped curve), and X is the logarithm of the concentration of the compound to be tested.

T2 sequence (Q07817 whole entry): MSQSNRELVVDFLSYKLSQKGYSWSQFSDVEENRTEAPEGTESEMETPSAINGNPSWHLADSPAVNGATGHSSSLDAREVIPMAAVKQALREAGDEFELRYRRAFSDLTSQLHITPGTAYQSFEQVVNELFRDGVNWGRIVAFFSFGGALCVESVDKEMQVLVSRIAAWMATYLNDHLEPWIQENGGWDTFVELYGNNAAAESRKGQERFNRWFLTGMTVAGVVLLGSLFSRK
T1 sequence (P10415 whole entry): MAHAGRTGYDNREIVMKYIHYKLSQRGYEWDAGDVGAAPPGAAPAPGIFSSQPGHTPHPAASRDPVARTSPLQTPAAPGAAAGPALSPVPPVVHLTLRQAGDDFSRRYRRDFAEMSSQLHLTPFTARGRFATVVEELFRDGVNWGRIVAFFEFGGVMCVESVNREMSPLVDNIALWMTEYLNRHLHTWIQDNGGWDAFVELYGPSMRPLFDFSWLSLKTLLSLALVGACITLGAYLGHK

For “2-((1H-Pyrrolo[2,3-b]pyridin-5-yl) oxy)-4-((R)-4-(((S)-4′-chloro-5- methyl-3,4,5,6-tetrahydro-[1,1′-biphenyl]- 2-yl)methyl)-2-methylpiperazn-1- yl)-N-((3-nitro-4-((((S)-4-(3-oxetan yl)morpholin-2-yl)methyl)amino) phenyl)sulfonyl)benzamide [Example 18]”, the IC50 in experiment [1] was 1.32 nM; in experiment [2], more than 1000 nM; in experiment [3], 2.4 nM.
In the case of `C[C@@H]1CN(c2ccc(C(=O)NS(=O)(=O)c3cc(F)c(NC[C@H]4COCCO4)c([N+](=O)[O-])c3)c(Oc3cnc4[nH]ccc4c3)c2)CCN1CC1=C(c2ccc(Cl)cc2)CCC(C)(C)C1` [Example 30, N-((4-((((S)-1,4-dioxan-2-yl)methyl)amino)-3-fluoro-5-nitrophenyl)sulfonyl)-2-((1H-pyrrolo[2,3-b]pyridin-5-yl)oxy)-4-((R)-4-((4′-chloro-4,4-dimethyl-3,4,5,6-tetrahydro-[1,1′-biphenyl]-2-yl)methyl)-3-methylpiperazin-1-yl)benzamide], the IC50 in experiment [1] was found to be 0.84 nM; in experiment [2], 831 nM; in experiment [3] (Homo sapiens, RS4-11) it was 2.3 nM.
The like results for `C[C@H]1CCC(CN2CCN(c3ccc(C(=O)NS(=O)(=O)c4ccc(NCC5CCOCC5)c([N+](=O)[O-])c4)c(Oc4cnc5[nH]ccc5c4)c3)C[C@H]2C)=C(c2ccc(Cl)cc2)C1` [Example 15, 2-((1H-pyrrolo[2,3-b]pyridin-5-yl)oxy)-4-((R)-4-(((S)-4′-chloro-5-methyl-3,4,5,6-tetrahydro-[1,1′-biphenyl]-2-yl)methyl)-3-methylpiperazin-1-yl)-N-((3-nitro-4-(((tetrahydro-2H-pyran-4-yl)methyl)amino)phenyl)sulfonyl)benzamide] were, in that order, 5.99 nM, more than 1000 nM and 19 nM.
The like results for `C[C@@H]1CN(c2ccc(C(=O)NS(=O)(=O)c3ccc(NCC4CCOCC4)c([N+](=O)[O-])c3)c(Oc3cnc4[nH]ccc4c3)c2)CCN1CC1=C(c2ccc(Cl)cc2)CC(C)(C)C2(CC2)C1` [Example 31, (R)-2-((1H-Pyrrolo[2,3-b]pyridin-5-yl)oxy)-4-(4-((6-(4-chlorophenyl)-8,8-dimethylspiro[2.5]oct-5-en-5-yl)methyl)-3-methylpiperazin-1-yl)-N-((3-nitro-4-(((tetrahydro-2H-pyran-4-yl)methyl)amino)phenyl)sulfonyl)benzamide] were, in that order, 3.57 nM, more than 1000 nM and 8.1 nM.
The like results for `C[C@@H]1CN(c2ccc(C(=O)NS(=O)(=O)c3ccc(NCC4CCOCC4)c([N+](=O)[O-])c3)c(Oc3cnc4[nH]ccc4c3)c2)CCN1CC1=C(c2ccc(Cl)cc2)CC(C)(C)C(C)(C)C1` [Example 39, (R)-2-((1H-pyrrolo[2,3-b]pyridin-5-yl)oxy)-4-(4-((4′-chloro-4,4,5,5-tetramethyl-3,4,5,6-tetrahydro-[1,1′-biphenyl]-2-yl)methyl)-3-methylpiperazin-1-yl)-N-((3-nitro-4--(((tetrahydro-2H-pyran-4-yl)methyl)amino)phenyl)sulfonyl)benzamide] were, in that order, 2.68 nM, more than 1000 nM and 14.5 nM.
`C[C@@H]1CCC(CN2CCN(c3ccc(C(=O)NS(=O)(=O)c4ccc(NC[C@H]5COCCO5)c([N+](=O)[O-])c4)c(Oc4cnc5[nH]ccc5c4)c3)C[C@H]2C)=C(c2ccc(Cl)cc2)C1` [Example 20, N-((4-((((S)-1,4-dioxan-2-yl)methyl)amino)-3-nitrophenyl)sulfonyl)-2-((1H-pyrrolo[2,3-b]pyridin-5-yl)oxy)-4-((R)-4-(((R)-4′-chloro-5-methyl-3,4,5,6-tetrahydro-[1,1′-biphenyl]-2-yl)methyl)-3-methylpiperazin-1-yl)benzamide]: the IC50 in experiment [1] is 2.57 nM; in experiment [2], more than 1000 nM; in experiment [3] (Homo sapiens, RS4-11), 8.8 nM.
The like results for `C[C@@H]1CN(c2ccc(C(=O)NS(=O)(=O)c3ccc(NCC4CCOCC4)c([N+](=O)[O-])c3)c(Oc3cnc4[nH]ccc4c3)c2)[C@H](C)CN1CC1=C(c2ccc(Cl)cc2)CC(C)(C)CC1` [Example 58, 2-((1H-Pyrrolo[2,3-b]pyridin-5-yl)oxy)-4-((2R,5R)-4-((4′-chloro-5,5-dimethyl-3,4,5,6-tetrahydro-[1,1′-biphenyl]-2-yl)methyl)-2,5-dimethylpiperazin-1-yl)-N-((3-nitro-4-(((tetrahydro-2H-pyran-4-yl)methyl)amino)phenyl)sulfonyl)benzamide] were, in that order, 29.9 nM, more than 1000 nM and 142 nM.
In the same order, the values of `C[C@@H]1CN(c2ccc(C(=O)NS(=O)(=O)c3ccc(NC[C@H]4COCCO4)c([N+](=O)[O-])c3)c(Oc3cnc4[nH]ccc4c3)c2)CCN1CC1=C(c2ccc(Cl)cc2)CCC2(CC2)C1` [Example 36] are 4.78 nM, more than 1000 nM and 21 nM.

In general, IC50 refers to the concentration that inhibits the measured activity by half.
